The record followed here is article PMC7059089, “Bioguided Isolation and Structure Identification of Acetylcholinesterase Enzyme Inhibitors from Drynariae Rhizome” (Journal of Analytical Methods in Chemistry, 2020).

A word on the IC50: it is the concentration that gives 50% inhibition.

The target of this test is T1, AChE (acetylcholinesterase) (Electrophorus electricus, UniProt O42275).
T1 construct: obtained from the head of an electric eel; purchased Shanghai Source Biotech Co. Ltd. (Shanghai, China); host or cells: electric eel tissue (head)
T1 sequence (O42275 24-633): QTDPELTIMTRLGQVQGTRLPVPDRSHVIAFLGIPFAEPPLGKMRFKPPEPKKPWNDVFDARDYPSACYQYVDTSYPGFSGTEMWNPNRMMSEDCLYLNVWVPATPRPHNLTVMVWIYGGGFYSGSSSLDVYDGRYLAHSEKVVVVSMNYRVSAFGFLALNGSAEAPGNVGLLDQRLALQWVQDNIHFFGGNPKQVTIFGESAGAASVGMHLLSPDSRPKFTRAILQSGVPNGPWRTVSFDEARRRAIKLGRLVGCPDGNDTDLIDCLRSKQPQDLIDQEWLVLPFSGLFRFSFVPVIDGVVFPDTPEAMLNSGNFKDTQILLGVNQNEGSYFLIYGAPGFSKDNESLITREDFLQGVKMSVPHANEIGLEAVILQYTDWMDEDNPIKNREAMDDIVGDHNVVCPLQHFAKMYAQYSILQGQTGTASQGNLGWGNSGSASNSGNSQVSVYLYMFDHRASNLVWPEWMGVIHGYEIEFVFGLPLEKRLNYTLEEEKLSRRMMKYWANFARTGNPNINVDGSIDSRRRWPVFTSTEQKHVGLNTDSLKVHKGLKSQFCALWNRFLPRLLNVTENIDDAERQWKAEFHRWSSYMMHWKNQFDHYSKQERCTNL
In words: biochemical. The settings on record: UPLC-MS/MS assay, ACh-I substrate, 37°C, 25 min, pH 8.0, n = 6, ± SD; read-out: IC50 against AChE. The source says: AChE (acetylcholinesterase, obtained from the head of an electric eel, 500 U), iodized acetylcholine (ACh-I, purity > 98.0%), iodized choline (Ch-I, purity > 98.0%), and Tris-HCl buffer (1 mol/L, pH 8.0) were all purchased from Shanghai Source Biotech Co. Ltd. (Shanghai, China). […] UPLC-grade acetonitrile was obtained from Fisher (Fair Lawn, NJ, USA). Water was purified by redistillation and a Milli-Q® ultrapure water system (Millipore, Bedford, MA, USA). Other chemicals and solvents used were of analytical grade.
AChE inhibition activities of the analytes were determined in vitro by monitoring the transformation from a substrate (ACh-I) to the product (Ch-I) catalyzed AChE, and Ch-I was quantified with UPLC-MS/MS to access the AChE activity. The reaction was conducted in a 100 μL mixture, consisting of 50 μL AChE solution (0.5 U/mL), 45 μL ACh-I solution (400 μg/mL), and 5 μL tested sample or blank Tris solution which were all dissolved in Tris buffer (pH 8.0). The mixture was incubated at 37°C in a thermostatic water bath for 25 min and then terminated by 500 μL acetonitrile at 0°C immediately. The terminal solution was centrifuged at 20,000g for 15 min, and the supernatant was used for UPLC-MS/MS analysis.
The […] inhibition was calculated as follows:(1) inhibition %=Cb−Cs/Cb∗100%. where Cb means the Ch-I concentration incubated without AChE inhibitor and Cs means the Ch-I concentration incubated with inhibitor. The inhibitory activities of the AChE inhibitors were assessed by the IC50 values of tested compounds. Galanthamine was selected as a positive control.
Liquid chromatography analysis was accomplished on an ACQUITY UPLC™ system (Waters Corp., Milford, MA, USA). The chromatographic separation was carried out using an ACQUITY UPLCTM BEH C18 column (2.1 × 50 mm, 1.7 μm) at 30°C. The isocratic elution mobile phase consisted of 0.5% acetic acid (A) and acetonitrile (B) (40 : 60) to guarantee the peak shape of Ch-I.
A Waters® Micromass® Quattro Premier™ XE triple-quadrupole tandem mass spectrometer equipped with an electrospray ionization interface (TQ-ESI) was used for mass spectrometric detection. The positive ESI source operation optimal parameters were capillary voltage 3.0 kV, extractor voltage 3.00 V, skimmer 25.0 V, fragmentor 35 V, octopole Rf peak 3000 v, source temperature 120°C, and desolvation temperature 300°C. Nitrogen was used as the desolvation gas and cone gas at a flow of 600 L/h and 50 L/h, respectively. Argon was used as the collision gas at a pressure of approximately 2.61 × 10^−3 mbar. A multiple reaction monitoring (MRM) mode was used to quantify Ch-I, and the fragments of 104.34 Th and 58.53 Th were selected as the parent ion and daughter ion to obtain accurate quantitation in the mixture containing herb extract. The MS scan rate spectrum was 5000 amu/s, dwell time 5 ms, and m/z range 0–300 Th. All data were acquired and analyzed by Mass Lynx™ NT 4.1 software with the Quan Lynx™ program (Waters, Milford, MA, USA).
The reaction procedure was conducted with reference to Liu's report; moreover, the enzyme constants, steady-state kinetics, reaction temperature, reaction time, substrate concentration, and AChE concentration were investigated and optimized to guarantee the utilization. […] The concentration of AChE in Liu's report was 3.470 U/mL.
As for `O=c1c(O[C@@H]2O[C@H](CO)[C@@H](O)[C@H](O)[C@H]2O)c(-c2ccc(O)cc2)oc2cc(O)cc(O)c12` [Astragalin, astragalin], the IC50 stood at 18.2 ± 2.33 µM.

Take `O=C1C[C@@H](c2ccc(O)c(O)c2)Oc2cc(O)cc(O)c21` [Eriodictyol, eriodictyol]: the IC50 came to 7.19 ± 0.62 µM. For `C[C@@H]1O[C@@H](O[C@H]2[C@H](Oc3cc(O)c4c(c3)O[C@H](c3ccc(O)c(O)c3)CC4=O)O[C@H](CO)[C@@H](O)[C@@H]2O)[C@H](O)[C@H](O)[C@H]1O` [Neoeriocitrin, neoeriocitrin] the value was 22.5 ± 1.25 µM; for `O=C1C[C@@H](c2ccc(O)cc2)Oc2cc(O)cc(O)c21` [Naringenin, naringenin], 3.81 ± 0.21 µM. The figure for `O=c1cc(-c2ccc(O)c(O)c2)oc2cc(O[C@@H]3O[C@H](CO)[C@H](O)[C@H](O)[C@H]3O)cc(O)c12` [Luteolin-7-O-β-D-glucoside, luteolin-7-O-β-D-glucoside] is 17.1 ± 1.02 µM; for `C[C@@H]1O[C@@H](O[C@H]2[C@H](Oc3cc(O)c4c(c3)O[C@H](c3ccc(O)cc3)CC4=O)O[C@H](CO)[C@@H](O)[C@@H]2O)[C@H](O)[C@H](O)[C@H]1O` [Naringin, naringin] it is 26.4 ± 1.17 µM. Regarding `O=c1cc(-c2ccc(O)c(O)c2)oc2cc(O)cc(O)c12` [Luteolin, luteolin], the IC50 came to 17.3 ± 0.23 µM.
